From ChEMBL document CHEMBL3621063, “Discovery of potent HIV-1 non-nucleoside reverse transcriptase inhibitors from arylthioacetanilide structural motif” (Eur J Med Chem, 2015)

Key:
[1] = Selectivity index, ratio of CC50 for human MT4 cells to EC50 for HIV-1 harboring reverse transcriptase K103N/Y181C double mutant infected in human MT4 cells; type: toxicity, cell-based; settings: read-out: Ratio CC50/EC50
[2] = Selectivity index, ratio of CC50 for human MT4 cells to EC50 for wild-type HIV-1 infected in human MT4 cells; type: toxicity, cell-based; settings: uninfected and infected with wild-type HIV-1, read-out: Ratio CC50/EC50
[3] = test system: Human immunodeficiency virus 1; assay: Antiviral activity against wild-type HIV-1 infected in human MT4 cells; type: functional, organism-based; settings: Human immunodeficiency virus 1, MT4
[4] = Cytotoxicity against human MT4 cells; type: cell-based
[5] = test system: Human immunodeficiency virus 1; assay: Antiviral activity against HIV-1 harboring reverse transcriptase K103N/Y181C double mutant infected in human MT4 cells; type: functional, organism-based; settings: Human immunodeficiency virus 1, MT4
[6] = test system: Human immunodeficiency virus 1; assay: Antiviral activity against HIV-1 3B infected in human MT4 cells assessed as cell viability after 5 days by MTT assay; type: functional, organism-based; settings: Human immunodeficiency virus 1, 3B, MT4, 120 h

Structure (SMILES)	selectivity ratio [1]	selectivity ratio [2]	EC50 [3]	CC50 [4]	EC50 [5]	EC50 [6]
O=C(CSc1nnsc1-c1cccc2ccccc12)Nc1cccnc1Cl	24	6440	0.019 µM	121 µM	5.11 µM	–
O=C(CSc1sc(Cl)nc1-c1ccc(Br)cc1Br)Nc1ccccc1[N+](=O)[O-]	–	–	–	–	–	2.09 µM
O=C(CSc1nnsc1-c1cccc2ccccc12)Nc1ccccc1Br	5	3920	0.044 µM	172 µM	34.4 µM	–
